Bounds are passed on as bounds.

Format in all cases: physicochemical
The nature of series [1]: Hygroscopicity: water vapour sorption/desorption isotherm (TGA Q5000 SA, 25°C, up to 98% RH). To be noted: up to 98% relative humidity. As to the method: Les mesures d'absorption et de désorption d'eau des polymères ont été réalisées à l'aide d'un analyseur thermogravimétrique SA Q5000 de TA Instruments contenant une microbalance dans lequel des creusets contenant l'échantillon et la référence ont été enfermés dans une chambre à humidité et température contrôlées. La température dans le Q5000 SA a été contrôlée par des éléments Peltier. Un gaz sec de N2 (200 mL/min) a été divisé en deux parties, dont une partie a été humidifiée par passage dans une chambre saturée d'eau. L'humidité relative souhaitée (RH) pour les mesures peut ainsi être obtenue par mélange des proportions appropriées (régulées par les contrôleurs de débit massique) de flux sec et humide.
La mesure de l'isotherme standard est composée d'un certain nombre d'étapes. Premièrement, l'échantillon a été séché à 60°C et 0% d'humidité relative pendant un temps déterminé jusqu'à ce que la variation de poids soit stabilisée à moins de 0,05%. Dans un second temps, la température a été abaissée à 25°C. L'humidité a ensuite été augmentée progressivement (par pas de 2% d'humidité relative) à un maximum de 98% d'humidité relative. La variation de poids de l'échantillon a été stabilisée après chaque étape jusqu'à ce qu'elle soit inférieure à 0,05%. L'isotherme de désorption de l'eau a également été mesurée. […]

Series [2] can be described thus: Phase-solubility diagram of ibuprofène with cyclodextrins or soluble polymer fractions. The settings on record: calculated from slope and So of the solubility diagram. As to the method: (§1) Les diagrammes de solubilité de plusieurs principes actifs ont été effectués en présence de cyclodextrines et de fractions solubles de polymères de cyclodextrine mentionnés à l'exemple 1.
(§2) Des solutions de concentration croissante de cyclodextrines et fractions solubles de polymères de cyclodextrine ont été préparées dans de l'eau ultrapure [0-70 g/L]. 10 mL de chacune des solutions ont été mis en présence d'un excès du principe actif (20 mg) sous agitation pendant 24 heures à température ambiante. Les solutions ont ensuite été filtrées avec une membrane en cellulose et en Nylon (0,45 µm; VWR International, USA) respectivement pour l'Ibuprofène et le Piroxicam. L'ibuprofène a été dosé par HPLC (Shimadzu LC-2010 HT Liquid Chromatography), la phase mobile de l'ibuprofène est un mélange acétonitrile/eau (60:40) avec un pH de 2,25, une colonne C18 a été utilisée. Le piroxicam a été dosé par spectrophotométrie UV-Vis à 356 nm (UV 1800 Shimadzu).
(§3) La constante de stabilité (K1:1) est utilisée pour comparer l'affinité de principes actifs pour différentes cyclodextrines ou dérivés. La solubilité totale de médicament (St) en solution aqueuse de cyclodextrine sera : [formula]
(§4) So = solubilité intrinsèque du médicament; [CD]1 = concentration totale en cyclodextrine dans le milieu aqueux
(§5) Une parcelle de St rapport [CD] t, selon l'équation (1), donnera une ligne droite avec une pente (K 1:1 So / (1 + K 1:1 So)) et une interception (Sint) égale à So. K 1:1 est calculée à partir de la pente et So : [formula]
Afin de pouvoir faire une comparaison directe entre cyclodextrine monomère et cyclodextrine polymérisée, les diagrammes de solubilité sont présentés en fonction de la concentration rapportée en gramme de monomère de cyclodextrine par litre. Tableau 3 : Solubilité de l'ibuprofène et constantes de complexation en présence des cyclodextrines ou de fractions solubles de polymères de cyclodextrine à 10 et 50 g/L en cyclodextrine. L'utilisation de cyclodextrines sous forme de monomères ne tombe pas sous l'étendue de la protection revendiquée.

The nature of series [3]: Phase-solubility diagram of piroxicam with cyclodextrins or soluble polymer fractions. The settings on record: calculated from slope and So of the solubility diagram. As to the method:
as §1, §2, §3, §4, §5

Series [4] can be described thus: Tapped density, Carr compressibility index and flow of the powder. The settings on record: for TAP (Ic^∗): Carr index after 500 taps. The protocol: Densité après tassement et indice de compressibilité de la composition compressible.
L'appareil utilisé est un appareil de tassement (Engelsmann powder tester, PTTD200, Pharma Test Instruments, India) composé d'une éprouvette graduée de 100 mL sur un socle vibrant. Les manipulations ont été réalisées suivant les conditions décrites dans la pharmacopée européenne (1997). Pour chaque poudre, le volume initial avant tassement est mesuré (V0) permettant de calculer la densité p0. Le volume final (Vf) de la poudre est ensuite mesuré après 500 tassements. La densité finale de la poudre après tassement peut ainsi être calculée (pf). On en déduit également l'indice de compressibilité ou Indice de Carr (Ic) donné par la formule suivante : [formula]
Les poudres ayant un indice de Carr inférieur à 20% présentent un bon écoulement.

A short description of series [5]: Tablet breaking strength (hardness), 5 mm / 100 mg tablets. To be noted: no active ingredient, no other additive. The source says: La machine à comprimer alternative utilisée était une Korsch (Allemagne) équipé de poinçon plat cylindrique de diamètre 5 mm. Les étapes de compression étaient les suivantes: (1) le remplissage de la matrice par écoulement du mélange, (2) arasage, (3) compression et (4) éjection du comprimé. L'épaisseur moyenne des comprimés est de 3,2 mm.
Cet essai est destiné à déterminer, dans des conditions définies, la résistance à la rupture des comprimés, mesurée par la force nécessaire pour les rompre par écrasement entre deux mâchoires.
L'appareil utilisé (PTB 311E, Pharma test Instruments, Inde) est constitué de deux mâchoires se faisant face, dont l'une se déplace vers l'autre qui est fixe. Les surfaces planes des mâchoires sont perpendiculaires à la direction de déplacement.
Le mode opératoire consistait à mettre en place le comprimé à plat entre les mâchoires, puis, une mâchoire se déplaçait à vitesse constante pour appliquer une force jusqu'à la rupture du comprimé. Cette force maximale est notée et considérée comme la dureté du comprimé. La façon dont un comprimé se fracture quand une force croissante est appliquée varie considérablement selon les diverses caractéristiques des produits.

A short description of series [6]: Tablet disintegration time in water. To be noted: 100 mg tablets. The protocol:
L'appareil utilisé était un appareil de désintégration manuelle PTZ-S, Pharma Test Instruments (Inde), composé d'un panier porte-tubes, un vase cylindrique bas de 1000 mL destiné à contenir le fluide d'immersion, un agencement thermostatique pour chauffer le fluide entre 35°C et 39°C, et d'un dispositif servant à imprimer au porte-tubes, dans le liquide d'immersion, un mouvement vertical alternatif. Le panier est composé de six tubes transparents verticaux, ouverts à leur extrémité supérieure et fermés à l'extrémité inférieure par une grille, un comprimé était placé dans chacun des six tubes du panier. Le fluide d'immersion était l'eau.
Le temps de désintégration a été déterminé comme le temps nécessaire pour que les comprimés passent à travers les mailles de la grille.

In the case of `OC[C@H]1O[C@@H]2O[C@H]3[C@H](O)[C@@H](O)[C@@H](O[C@H]4[C@H](O)[C@@H](O)[C@@H](O[C@H]5[C@H](O)[C@@H](O)[C@@H](O[C@H]6[C@H](O)[C@@H](O)[C@@H](O[C@H]7[C@H](O)[C@@H](O)[C@@H](O[C@H]8[C@H](O)[C@@H](O)[C@@H](O[C@H]1[C@H](O)[C@H]2O)O[C@@H]8CO)O[C@@H]7CO)O[C@@H]6CO)O[C@@H]5CO)O[C@@H]4CO)O[C@@H]3CO` [βCD, β-cyclodextrine], the “valeur maximale de prise d'eau” value in series [1] is reported as 0,18 g/g. Moreover, the “Constante de complexation K1:1” value in series [2] was 11 M⁻¹; in series [3], 173 M⁻¹. In addition, the “TAP (Ic^∗)” value is recorded as more than 20% in series [4] and 23,1% in series [4] (listed as CD (monomère)). Besides, in series [4] (powder of βCD polymer fractions), the Ecoulement result is listed as “Non Libre”. The “Résistance à la rupture” value in series [5] is recorded as 45-50 N. In series [6], the “Temps de désagrégation” value is more than 30 min.

These data come from patent EP3349734B1, “USE OF SOLUBLE AND INSOLUBLE FRACTIONS OF A CYCLODEXTRIN POLYMER AND OF MIXTURES THEREOF AS AN EXCIPIENT IN A TABLET” (Université de Lille, priority 2015, dated 2017).
